Calls of active or inactive are those of the source. The calls are words filed in the database; no cut-off is given here.
System: Ribosome
Experiment: Inhibition of ribosome peptidyl transferase site in rabbit reticulocytes assessed as inhibition of translation using firefly luciferase DNA as template at 0.8 to 80 uM after 1 hr by luciferase assay
Format: subcellular
Conditions: Oryctolagus cuniculus

inhibition: Active
SMILES: CCN(CC)c1ccc2c(COC(=O)N3C[C@@H](O)[C@H](OC(C)=O)[C@@H]3Cc3ccc(OC)cc3)cc(=O)oc2c1
